Source: ChEMBL document CHEMBL5303573, “Mapping human microbiome drug metabolism by gut bacteria and their genes” (Nature, 2019)
Non-standard residues stand in square brackets, D forms with d. Residues, ends and D or L forms follow the SMILES beside them. pGlu = O=C1CC[C@@H](C(=O)O)N1; Thz = O=C(O)[C@@H]1CSCN1

Assays:
[1] = The drug is tested on Providencia rettgeri strain: DSM1131 for biotransformation. The drug concentrations were measured before and after a 12-h incubation by liquid-chromatography-coupled mass spectrometry (LC–MS); assay type: ADME; design: dose 2 uM, timepoint 0 vs 12 hours; details: 2 µM
[2] = The drug is tested on Bacteroides fragilis strain: HMW610 for biotransformation. The drug concentrations were measured before and after a 12-h incubation by liquid-chromatography-coupled mass spectrometry (LC–MS); details: 2 µM
[3] = The drug is tested on Clostridium symbiosum strain: ATCC14940 for biotransformation. The drug concentrations were measured before and after a 12-h incubation by liquid-chromatography-coupled mass spectrometry (LC–MS); details: 2 µM
[4] = bacteroides stercoris, 12 h, 2 µM
[5] = roseburia intestinalis, 12 h, 2 µM
Description: The drug is tested on Roseburia intestinalis strain: L1-82 for biotransformation. The drug concentrations were measured before and after a 12-h incubation by liquid-chromatography-coupled mass spectrometry (LC–MS)

[6] = The drug is tested on Bifidobacterium longum subsp. Infantis strain: CCUG52486 for biotransformation. The drug concentrations were measured before and after a 12-h incubation by liquid-chromatography-coupled mass spectrometry (LC–MS); details: 2 µM
[7] = The drug is tested on Bacteroides cellulosilyticus strain: DSM14838 for biotransformation. The drug concentrations were measured before and after a 12-h incubation by liquid-chromatography-coupled mass spectrometry (LC–MS); details: 2 µM
[8] = The drug is tested on Bacteroides finegoldii strain: DSM17565 for biotransformation. The drug concentrations were measured before and after a 12-h incubation by liquid-chromatography-coupled mass spectrometry (LC–MS); details: 2 µM
[9] = The drug is tested on Ruminococcus torques strain: ATCC27756 for biotransformation. The drug concentrations were measured before and after a 12-h incubation by liquid-chromatography-coupled mass spectrometry (LC–MS); assay type: ADME; design: dose 2 uM, timepoint 0 vs 12 hours; details: 2 µM
[10] = bacteroides intestinalis, 12 h, 2 µM
[11] = bacteroides thetaiotaomicron, 12 h, 2 µM
[12] = The drug is tested on Ruminococcus lactaris strain: ATCC29176 for biotransformation. The drug concentrations were measured before and after a 12-h incubation by liquid-chromatography-coupled mass spectrometry (LC–MS); details: 2 µM
[13] = The drug is tested on Bacteroides fragilis strain: ATCC43859 for biotransformation. The drug concentrations were measured before and after a 12-h incubation by liquid-chromatography-coupled mass spectrometry (LC–MS); details: 2 µM
[14] = bifidobacterium adolescentis, 12 h, 2 µM
[15] = The drug is tested on Bacteroides uniformis strain: ATCC8492 for biotransformation. The drug concentrations were measured before and after a 12-h incubation by liquid-chromatography-coupled mass spectrometry (LC–MS); details: 2 µM
[16] = akkermansia muciniphila, 12 h, 2 µM
[17] = The drug is tested on Bacteroides vulgatus strain: ATCC8482 for biotransformation. The drug concentrations were measured before and after a 12-h incubation by liquid-chromatography-coupled mass spectrometry (LC–MS); details: phocaeicola vulgatus, 2 µM
[18] = The drug is tested on Bifidobacterium ruminantium strain: fecal isolate for biotransformation. The drug concentrations were measured before and after a 12-h incubation by liquid-chromatography-coupled mass spectrometry (LC–MS); details: 2 µM
[19] = The drug is tested on Bacteroides dorei strain: DSM17855 for biotransformation. The drug concentrations were measured before and after a 12-h incubation by liquid-chromatography-coupled mass spectrometry (LC–MS); details: phocaeicola dorei, 2 µM
[20] = bacteroides eggerthii, 12 h, 2 µM

Compound: CC[C@@]1(O)C(=O)OCc2c1cc1n(c2=O)Cc2cc3c(CN(C)C)c(O)ccc3nc2-1 [TOPOTECAN]
- Bacterial Biotransformation [1]: Compound NOT metabolized
- Bacterial Biotransformation [2]: Compound NOT metabolized
- Bacterial Biotransformation [3]: Compound NOT metabolized
- Bacterial Biotransformation [4]: Compound NOT metabolized
- Bacterial Biotransformation [5]: Compound NOT metabolized
- Bacterial Biotransformation [6]: Compound NOT metabolized
- Bacterial Biotransformation [7]: Compound NOT metabolized
- Bacterial Biotransformation [8]: Compound NOT metabolized
- Bacterial Biotransformation [9]: Compound NOT metabolized
- Bacterial Biotransformation [10]: Compound NOT metabolized
- Bacterial Biotransformation [11]: Compound NOT metabolized
- Bacterial Biotransformation [12]: Compound NOT metabolized
- Bacterial Biotransformation [13]: Compound NOT metabolized
- Bacterial Biotransformation [14]: Compound NOT metabolized
- Bacterial Biotransformation [15]: Compound NOT metabolized
- Bacterial Biotransformation [16]: Compound NOT metabolized
- Bacterial Biotransformation [17]: Compound NOT metabolized
- Bacterial Biotransformation [18]: Compound NOT metabolized
- Bacterial Biotransformation [19]: Compound NOT metabolized

Compound: COc1ccc(CCN(C)CCCC(C#N)(c2ccc(OC)c(OC)c2)C(C)C)cc1OC (configuration not stated)
- Bacterial Biotransformation [1]: Compound NOT metabolized
- Bacterial Biotransformation [2]: Compound NOT metabolized
- Bacterial Biotransformation [4]: Compound metabolized
- Bacterial Biotransformation [6]: Compound NOT metabolized
- Bacterial Biotransformation [7]: Compound NOT metabolized
- Bacterial Biotransformation [8]: Compound NOT metabolized
- Bacterial Biotransformation [9]: Compound NOT metabolized
- Bacterial Biotransformation [10]: Compound metabolized
- Bacterial Biotransformation [11]: Compound metabolized
- Bacterial Biotransformation [12]: Compound NOT metabolized
- Bacterial Biotransformation [20]: Compound NOT metabolized
- Bacterial Biotransformation [13]: Compound NOT metabolized
- Bacterial Biotransformation [14]: Compound NOT metabolized
- Bacterial Biotransformation [15]: Compound metabolized
- Bacterial Biotransformation [16]: Compound metabolized
- Bacterial Biotransformation [17]: Compound metabolized
- Bacterial Biotransformation [18]: Compound NOT metabolized

Compound: CCCCC1=NC2(CCCC2)C(=O)N1Cc1ccc(-c2ccccc2-c2nnn[nH]2)cc1 [IRBESARTAN]
- Bacterial Biotransformation [1]: Compound metabolized
- Bacterial Biotransformation [2]: Compound metabolized
- Bacterial Biotransformation [3]: Compound metabolized
- Bacterial Biotransformation [4]: Compound metabolized
- Bacterial Biotransformation [6]: Compound metabolized
- Bacterial Biotransformation [7]: Compound metabolized
- Bacterial Biotransformation [8]: Compound metabolized
- Bacterial Biotransformation [9]: Compound metabolized
- Bacterial Biotransformation [10]: Compound metabolized
- Bacterial Biotransformation [11]: Compound metabolized
- Bacterial Biotransformation [12]: Compound metabolized
- Bacterial Biotransformation [13]: Compound metabolized
- Bacterial Biotransformation [14]: Compound metabolized
- Bacterial Biotransformation [15]: Compound metabolized
- Bacterial Biotransformation [16]: Compound NOT metabolized
- Bacterial Biotransformation [17]: Compound metabolized
- Bacterial Biotransformation [18]: Compound metabolized
- Bacterial Biotransformation [19]: Compound metabolized

Compound: O=C1CC[C@@H](C(=O)N2CSC[C@H]2C(=O)O)N1 [PIDOTIMOD] ([pGlu]-[Thz]-OH)
- Bacterial Biotransformation [1]: Compound NOT metabolized
- Bacterial Biotransformation [2]: Compound metabolized
- Bacterial Biotransformation [3]: Compound NOT metabolized
- Bacterial Biotransformation [4]: Compound metabolized
- Bacterial Biotransformation [5]: Compound NOT metabolized
- Bacterial Biotransformation [6]: Compound NOT metabolized
- Bacterial Biotransformation [7]: Compound NOT metabolized
- Bacterial Biotransformation [9]: Compound NOT metabolized
- Bacterial Biotransformation [10]: Compound NOT metabolized
- Bacterial Biotransformation [11]: Compound metabolized
- Bacterial Biotransformation [12]: Compound NOT metabolized
- Bacterial Biotransformation [20]: Compound NOT metabolized
- Bacterial Biotransformation [13]: Compound metabolized
- Bacterial Biotransformation [14]: Compound NOT metabolized
- Bacterial Biotransformation [15]: Compound metabolized
- Bacterial Biotransformation [16]: Compound NOT metabolized
- Bacterial Biotransformation [17]: Compound NOT metabolized
- Bacterial Biotransformation [18]: Compound NOT metabolized
- Bacterial Biotransformation [19]: Compound metabolized

Compound: CN(C)CCc1c[nH]c2ccc(Cn3cncn3)cc12.O=C(O)c1ccccc1 [RIZATRIPTAN BENZOATE]
- Bacterial Biotransformation [1]: Compound NOT metabolized
- Bacterial Biotransformation [2]: Compound NOT metabolized
- Bacterial Biotransformation [3]: Compound NOT metabolized
- Bacterial Biotransformation [5]: Compound NOT metabolized
- Bacterial Biotransformation [7]: Compound NOT metabolized
- Bacterial Biotransformation [8]: Compound NOT metabolized
- Bacterial Biotransformation [9]: Compound NOT metabolized
- Bacterial Biotransformation [12]: Compound NOT metabolized
- Bacterial Biotransformation [20]: Compound NOT metabolized
- Bacterial Biotransformation [13]: Compound NOT metabolized
- Bacterial Biotransformation [16]: Compound NOT metabolized
- Bacterial Biotransformation [17]: Compound NOT metabolized
- Bacterial Biotransformation [18]: Compound NOT metabolized
- Bacterial Biotransformation [19]: Compound NOT metabolized

Compound: C[C@@H](CO)NC(=O)[C@@H]1C=C2c3cccc4[nH]cc(c34)C[C@H]2N(C)C1.O=C(O)/C=C\C(=O)O [ERGONOVINE MALEATE]
- Bacterial Biotransformation [1]: Compound NOT metabolized
- Bacterial Biotransformation [2]: Compound metabolized
- Bacterial Biotransformation [3]: Compound metabolized
- Bacterial Biotransformation [4]: Compound NOT metabolized
- Bacterial Biotransformation [5]: Compound NOT metabolized
- Bacterial Biotransformation [6]: Compound metabolized
- Bacterial Biotransformation [7]: Compound metabolized
- Bacterial Biotransformation [8]: Compound NOT metabolized
- Bacterial Biotransformation [9]: Compound NOT metabolized
- Bacterial Biotransformation [10]: Compound metabolized
- Bacterial Biotransformation [11]: Compound metabolized
- Bacterial Biotransformation [12]: Compound metabolized
- Bacterial Biotransformation [13]: Compound metabolized
- Bacterial Biotransformation [15]: Compound metabolized
- Bacterial Biotransformation [16]: Compound NOT metabolized
- Bacterial Biotransformation [17]: Compound metabolized
- Bacterial Biotransformation [18]: Compound NOT metabolized
- Bacterial Biotransformation [19]: Compound metabolized

Compound: C[C@]12C=CC(=O)C=C1CC[C@@H]1[C@@H]2C(=O)C[C@@]2(C)[C@H]1CC[C@]2(O)C(=O)CO [PREDNISONE]
- Bacterial Biotransformation [1]: Compound NOT metabolized
- Bacterial Biotransformation [2]: Compound NOT metabolized
- Bacterial Biotransformation [3]: Compound NOT metabolized
- Bacterial Biotransformation [5]: Compound NOT metabolized
- Bacterial Biotransformation [6]: Compound NOT metabolized
- Bacterial Biotransformation [7]: Compound NOT metabolized
- Bacterial Biotransformation [8]: Compound NOT metabolized
- Bacterial Biotransformation [9]: Compound NOT metabolized
- Bacterial Biotransformation [10]: Compound NOT metabolized
- Bacterial Biotransformation [11]: Compound NOT metabolized
- Bacterial Biotransformation [12]: Compound NOT metabolized
- Bacterial Biotransformation [20]: Compound NOT metabolized
- Bacterial Biotransformation [13]: Compound NOT metabolized
- Bacterial Biotransformation [14]: Compound NOT metabolized
- Bacterial Biotransformation [15]: Compound NOT metabolized
- Bacterial Biotransformation [16]: Compound NOT metabolized
- Bacterial Biotransformation [17]: Compound NOT metabolized
- Bacterial Biotransformation [18]: Compound NOT metabolized
- Bacterial Biotransformation [19]: Compound NOT metabolized

Compound: CC(C)NCC(O)c1ccc(NS(C)(=O)=O)cc1 (configuration not stated) [SOTALOL]
- Bacterial Biotransformation [1]: Compound NOT metabolized
- Bacterial Biotransformation [2]: Compound metabolized
- Bacterial Biotransformation [3]: Compound NOT metabolized
- Bacterial Biotransformation [4]: Compound NOT metabolized
- Bacterial Biotransformation [5]: Compound NOT metabolized
- Bacterial Biotransformation [6]: Compound NOT metabolized
- Bacterial Biotransformation [7]: Compound NOT metabolized
- Bacterial Biotransformation [8]: Compound NOT metabolized
- Bacterial Biotransformation [9]: Compound NOT metabolized
- Bacterial Biotransformation [11]: Compound metabolized
- Bacterial Biotransformation [12]: Compound NOT metabolized
- Bacterial Biotransformation [20]: Compound NOT metabolized
- Bacterial Biotransformation [13]: Compound metabolized
- Bacterial Biotransformation [14]: Compound NOT metabolized
- Bacterial Biotransformation [15]: Compound metabolized
- Bacterial Biotransformation [16]: Compound NOT metabolized
- Bacterial Biotransformation [17]: Compound NOT metabolized
- Bacterial Biotransformation [18]: Compound NOT metabolized
